One assay has as its system Molt 4 cells. In words: Annexin V/PI apoptosis assay. The class given is cell-based, human. The protocol:
The externalization of phosphatidylserine (PS) and membrane integrity were quantified using an annexin V- FITC staining kit[72]. In brief, 10^6 cells were grown in 35 mm diameter plates and were labeled with annexin V-FITC (10 μg/mL) and PI (20 μg/mL) prior to harvesting. After labeling, all plates were washed with a binding buffer and harvested. Cells were resuspended in the binding buffer at a concentration of 2 × 10^5 cells/mL before analysis by flow cytometer FACS-Calibur (Becton-Dickinson, San Jose, CA, USA) and CellQuest software. Approximately 10,000 cells were counted for each determination.

A further assay has as its system Ca9-22 cells. As to the kind of experiment: MTT antiproliferative assay, oral Ca9-22 cells. To be noted: Homo sapiens, Ca9-22, 72 h, read-out: IC50, cytotoxicity, Oral Ca9-22.
Another assay concerns Cal-27 cells. As to the kind of experiment: MTT antiproliferative assay, oral Cal-27 cells. To be noted: Homo sapiens, CAL-27, 72 h, read-out: IC50, cytotoxicity, Oral Cal-27. (Formazan colour is commonly taken as a measure of viable cells.)

Data on 1 compound can be found in PMC5086919, “Antileukemic Scalarane Sesterterpenoids and Meroditerpenoid from Carteriospongia (Phyllospongia) sp., Induce Apoptosis via Dual Inhibitory Effects on Topoisomerase II and Hsp90” (Scientific Reports, 2016).

For orientation: IC50 means the concentration that gives 50% inhibition.

≈ marks a conversion by molar mass, not a printed value.

Description for Ca9-22 cells: (§1) Several cancer cell lines including leukemia K562, Molt 4, and HL 60 cells, prostate cancer LNCaP cells, colon cancer DLD-1 cells and breast cancer T-47D cells were used to evaluate the antiproliferative activity.
(§2) The cell lines were obtained from the American Type Culture Collection (ATCC, Manassas, VA, USA). […] Dimethyl sulfoxide (DMSO), 3-(4,5-dimethylthiazol-2-yl)-2,5-diphenyl-tetrazolium bromide (MTT) and all other chemicals were purchased from Sigma-Aldrich (St. Louis, MO, USA).
Description for Cal-27 cells: as §1, §2

Regarding `CC[C@@]1(C)CCC[C@]2(C)[C@H]3C[C@@H](OC(=O)C[C@@H](C)O)[C@]4(C)[C@@H](C=O)C(C(C)=O)=CC[C@H]4[C@]3(C)CC[C@@H]12` (relative stereo) [Compound 1, 12β-(3′β-hydroxybutanoyloxy)-20,24-dimethyl-24-oxo-scalara-16-en-25-al], the “apoptotic population of Molt 4 cells” value with Molt 4 cells (0, 0.0625, 0.125 and 0.25 μg/mL, 24 h, annexin-V/PI) is “increase in the apoptotic population”. The “lowest dose inducing mitochondrial dysfunction and apoptotic cell death” value with Molt 4 cells (24 h, flow cytometry) is 0.0625 µg/mL. Besides, the “concentration that triggered MMP disruption and apoptosis” value with Molt 4 cells (Molt 4 cells, molar value in brackets) is recorded as 125 nM. In addition, the figures for the IC50 in the assay on Ca9-22 cells and in the assay on Cal-27 cells were 0.1 µg/mL (≈ 0.2 µM) and 0.56 µg/mL (≈ 1.12 µM), respectively.
